Measured values taken from patent publication US6043219A, “Broad spectrum chemotherapeutic peptide” (Kansas State University Research Foundation, priority 1997, dated 2000).
“Also recorded” adds a separate entry of the source.

Legend:
[1] = Stability of BacR1: residual activity by bactericidal assay (plate method) after treatments; format: physicochemical
Procedure: 7A, p. 315-422. […] Appl. Microbiol. 21:943].
The stability of BacR1 was assessed by determining the activity of BacR1 by bactericidal assay (plate method) after exposure to various temperatures, environmental conditions, and enzymes (Table 2). Solutions of finally purified BacR1 at a concentration of 640 AU/ml were used in these stability experiments. BacR1 samples were held at various temperatures for 15 min, were held at pHs ranging from 3 to 11 at room temperature for 1 h, were incubated in 6M urea at room temperature for 1 h, or were incubated with 1 mg/ml of enzyme at room temperature for 1 h.

[2] = Preparative isoelectric focusing (Rotofor); format: physicochemical; conditions: ammonium sulfate-precipitated culture supernatant, ampholytes pH 3-10, fractions 15 through 17
Procedure: Isoelectric focusing of ammonium sulfate-precipitated culture supernatants of S. aureus UT0007 was carried out on a Rotofor isoelectric focusing cell (Bio-Rad, Richmond, Calif.) in order to define certain biophysical characteristics of BacR1. Concentrated culture supernatants were dialyzed overnight in 3,500 molecular-weight-cutoff dialysis tubing (SpectraPor, Los Angeles, Calif.) against 4 L distilled water at 4° C. The dialyzed sample was centrifuged at 9,000× g for 10 min at 4° C. to remove insoluble material, and the supernatant was diluted to a total volume of 55 ml with distilled water. Ampholytes (pH 3-10) (Fisher, St. Louis, Mo.) were added to a final concentration of 1% and the sample was loaded into the Rotofor cell for focusing at 12 W constant power at 4° C. The initial conditions were approximately 600 V and 35 mA; upon equilibrium the values were approximately 1200 V and 15 mA. Twenty individual fractions were harvested and the total protein, pH, and BacR1 activity for each fraction was determined.

C. renale [3] = experiment: Effect of BacR1 on viability of C. renale (A550 and viable cell counts over time); format: cell-based, Corynebacterium renale
Procedure: FIG. 9 includes a pair of graphs illustrating the effect of BacR1 on the viability C. renale; the A550 of a culture of control cells (-.circle-solid.-) and a culture of cells incubated with BacR1 at a concentration of 100 AU/ml (-.box-solid.-) was measured at respective times;
FIG. 10 includes a pair of graphs illustrating the effect of BacR1 on the viability C. renale; viable cell counts for a culture of control cells (-.circle-solid.-) and a culture of cells incubated with BacR1 at a concentration of 100 AU/ml (-.box-solid.-) were determined at respective times.
BacR1 kills C. renale in a dose-dependent fashion, with a MIC50 of approximately 6 AU/ml (FIG. 8). Furthermore, the killing is rapid in the absence of cell lysis as evidenced in FIGS. 9 and 10. No viable cells were detected after 120 min of exposure to BacR1. […] Such recovery would be observed with a bacteriostatic agent.

C. renale [4] = experiment: SDS-PAGE bioassay (gel overlaid with top agar containing C. renale); format: cell-based, Corynebacterium renale; conditions: finally purified BacR1
From the text: Purified preparations of BacR1 were subjected to electrophoretic analysis by SDS-PAGE. After electrophoresis, gels were either silver stained (Blum et al. 1987. Electrophoresis 8:93-99) or bioassayed using a slight modification of the method of Bhunia et al. (1987. J. Indust. Microbiol. 2:319-322). Briefly, each protein sample was electrophoresed in a 10-20% SDS-PAGE gradient gel (Bio-Rad, Richmond, Calif.) as previously described (Laemmli et al. 1970. Nature. 227:680-685). After electrophoresis, SDS was removed by soaking the gel in 20% isopropanol-10% acetic acid in water for 2 h, followed by rinsing in distilled water for 4 h. The gel was then placed on a BHT-80 agar plate and overlaid with BHT-80 top agar (0.7% agar) containing C. renale. After incubation at 37° C. overnight, the plate/gel combination was examined for zones of growth inhibition.

Bordetella brochoseptica = experiment: Inhibitory spectrum, bactericidal assay (plate method); format: cell-based; conditions: B. bronchoseptica
Bordetella pertussis = experiment: as above; format: cell-based; conditions: Bordatella pertussis
Corynebacterium renale = experiment: as above; format: cell-based; conditions: C. renale compared with other sensitive organisms
Haemophilus parasuis = experiment: as above; format: cell-based; conditions: Hemophilus parasuis
Moraxella bovis = experiment: as above; format: cell-based
Pasteurella multocida = experiment: as above; format: cell-based
Streptococcus suis = experiment: as above; format: cell-based
S. aureus = experiment: Inhibitory spectrum, S. aureus; format: cell-based, Staphylococcus aureus
[5] = test system: methicillin-resistant S. aureus (MRSA) strains; experiment: Additional analyses of the inhibitory spectrum; format: cell-based, Staphylococcus aureus; conditions: ten MRSA strains tested
[6] = test system: vancomycin-resistant strains of Enterococcus faecalis and E. faecium; experiment: Additional analyses of the inhibitory spectrum; format: cell-based; conditions: remainder varying degrees of resistance
C. renale [7] = conditions: finally purified BacR1, 37° C., 5 h, A550
[8] = crude preparation, Rogolsky et al. paper; cited from earlier work
[9] = test system: Corynebacterium renale ATCC 19412; experiment: Bactericidal assay of BacR1 (plate method)

## BacR1: 26-mer proteinaceous bacteriocin of approximately 3.4 kilodaltons produced by S. aureus UT0007; peptide sequence SEQ ID No. 3 (LGGAATGVIGYISNQTCPTTACTRAC)
[1]; 4° C., 15 min, 640 AU/ml
  % Residual Activity: 100%
[1]; 25° C., 15 min, 640 AU/ml
  % Residual Activity: 100%
[1]; 37° C., 15 min, 640 AU/ml
  % Residual Activity: 100%
[1]; -20° C., 15 min, finally purified BacR1 640 AU/ml
  % Residual Activity: 100%
[1]; pH 3 to 11, room temperature, 1 h, 640 AU/ml
  % Residual Activity: 100%
[2]
  apparent average pI: 7.7
C. renale [3]; BacR1 100 AU/ml
  exposure time after which no viable cells were detected: 120 min
C. renale [3]; prolonged incubation, cells do not recover
  mode of action (bactericidal vs bacteriostatic): bactericidal
C. renale [4]
  bactericidal activity in SDS-PAGE gel overlay: possessed BacR1 activity
Bordetella brochoseptica
  sensitivity to BacR1 (in words): killed; also recorded: sensitive
Bordetella pertussis
  sensitivity to BacR1 (in words): sensitive
Corynebacterium renale
  relative susceptibility: equally (and most) sensitive
Haemophilus parasuis
  sensitivity to BacR1 (in words): sensitive
Moraxella bovis
  relative susceptibility: equally (and most) sensitive
Moraxella bovis; Moraxella bovis
  sensitivity to BacR1 (in words): especially sensitive
Pasteurella multocida
  sensitivity to BacR1 (in words): killed
Streptococcus suis
  sensitivity to BacR1 (in words): killed
S. aureus; S. aureus
  sensitivity to BacR1 (in words): killed
S. aureus; S. aureus compared with other sensitive organisms
  relative susceptibility: susceptible, but required higher doses
[5]
  sensitivity to BacR1 (in words): very sensitive
[6]
  share of tested strains sensitive to BacR1: About 40%
C. renale [7]
  MIC50 (concentration that caused a 50% inhibition of growth): approximately 6 AU/ml
[8]
  maximum specific activity: 46 AU/mg
[9]; purification stage: Ammonium Sulfate
  Specific Activity: 1259 AU/mg
[9]; purification stage: C4 Reverse-Phase (1st cycle)
  Specific Activity: 16,642 AU/mg
[9]; purification stage: C4 Reverse-Phase (2nd cycle), finally purified
  Specific Activity: 37,450 AU/mg
[9]; purification stage: Cation Exchange
  Specific Activity: 6963 AU/mg
[9]; purification stage: Supernatant (1 L)
  Specific Activity: 152 AU/mg
